Source: patent US20130143902A1, “COMPOSITIONS AND METHODS OF TREATING A PROLIFERATIVE DISEASE WITH A QUINAZOLINONE DERIVATIVE” (GILEAD CALISTOGA LLC, priority 2011, published 2013)

Tests used:
IGROV-1 = assay: Viability (AlamarBlue), IGROV-1; type: cell-based; settings: Homo sapiens; IGROV-1, Ovarian
Description: (§1) For primary T-ALL samples, cell viability was determined using the BD Cell Viability kit (BD Biosciences) and fluorescent counting beads as previously described in Armstrong, F. et al., NOTCH is a key regulator of human T-cell acute leukemia initiating cell activity, Blood 113, 1730-1740 (2009). Cells were plated with MS5-DL1 stroma cells. After 72 hours following treatment, cells were harvested and stained with an APC-conjugated anti-human CD45 according to the manufacturer's instructions. For solid tumor cell lines, cellular viability was determined using the AlamarBlue kit (Invitrogen). About 10,000 cells in 100 μL of media containing 10% FBS were aliquoted into individual wells of a 96-well plate and treated with vehicle (DMSO) or compound in triplicate for 24 hours. Ten μL of AlamarBlue reagent was added to each well and incubated for 4 hours at 37° C. with 5% CO2. Fluorescence was measured with an excitation wavelength at 530 to 560 nm and emission wavelength at 590 nm using Spectramax M5 plate reader (Molecular Devices, Sunnyvale, Calif.).

[1] = In vitro metabolism in human liver microsomes; type: in vitro ADME
786-0 [2] = assay: pAkt pathway inhibition, 786-0; type: cell-based; settings: Homo sapiens; 786-0, Renal
[3] = test system: pAkt in T Cell Malignancies; assay: pAkt activity, T cell malignancies; type: cell-based; settings: N = 7
Excerpt: (§2) Cellular viability and pAkt activity were used to determine effects of Compounds A, C, and D in solid tumor, B-cell malignancies, and T-cell malignancies.

786-0 [4] = assay: Viability (AlamarBlue), 786-0; type: cell-based; settings: Homo sapiens; 786-0, Renal
Description: as §1

LN18 = assay: pAkt pathway inhibition, LN18; type: cell-based; settings: Homo sapiens, LN-18; LN18, Glioma
PI3K p110α = PI3K p110α (Mus musculus, UniProt P42337); assay: Cellular p110α signaling: PDGF-stimulated MEFs, pAkt Western blot; type: cell-based, murine
PI3K p110α, sequence (P42337 whole entry): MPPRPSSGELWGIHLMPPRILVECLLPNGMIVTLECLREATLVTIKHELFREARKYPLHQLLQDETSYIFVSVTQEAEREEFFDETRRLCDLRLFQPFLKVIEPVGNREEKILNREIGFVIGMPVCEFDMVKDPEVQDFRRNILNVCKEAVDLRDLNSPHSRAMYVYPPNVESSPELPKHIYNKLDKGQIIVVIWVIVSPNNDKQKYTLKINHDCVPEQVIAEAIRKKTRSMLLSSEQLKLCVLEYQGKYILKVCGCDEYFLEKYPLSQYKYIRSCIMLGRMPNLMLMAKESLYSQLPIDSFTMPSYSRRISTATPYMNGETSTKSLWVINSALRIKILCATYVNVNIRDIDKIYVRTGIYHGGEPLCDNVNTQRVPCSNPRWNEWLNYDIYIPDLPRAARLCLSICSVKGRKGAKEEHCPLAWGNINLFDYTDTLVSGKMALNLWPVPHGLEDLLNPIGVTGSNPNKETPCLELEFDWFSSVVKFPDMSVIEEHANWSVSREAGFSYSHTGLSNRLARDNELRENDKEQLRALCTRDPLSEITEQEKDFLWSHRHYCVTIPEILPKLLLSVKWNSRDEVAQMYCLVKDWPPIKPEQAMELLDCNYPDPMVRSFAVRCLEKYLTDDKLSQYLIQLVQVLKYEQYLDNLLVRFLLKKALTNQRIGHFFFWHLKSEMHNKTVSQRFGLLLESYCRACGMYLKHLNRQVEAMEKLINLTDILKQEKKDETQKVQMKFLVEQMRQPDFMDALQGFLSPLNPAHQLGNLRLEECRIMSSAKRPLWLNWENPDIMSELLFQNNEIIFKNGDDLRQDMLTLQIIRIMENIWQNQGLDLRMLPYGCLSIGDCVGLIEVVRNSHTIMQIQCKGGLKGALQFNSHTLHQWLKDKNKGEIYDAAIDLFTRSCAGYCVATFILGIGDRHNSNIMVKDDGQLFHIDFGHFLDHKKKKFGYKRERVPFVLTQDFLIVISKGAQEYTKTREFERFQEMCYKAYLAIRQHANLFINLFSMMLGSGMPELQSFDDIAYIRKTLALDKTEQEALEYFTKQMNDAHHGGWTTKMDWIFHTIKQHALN
PI3K p110α, sequence (P26450 whole entry partner): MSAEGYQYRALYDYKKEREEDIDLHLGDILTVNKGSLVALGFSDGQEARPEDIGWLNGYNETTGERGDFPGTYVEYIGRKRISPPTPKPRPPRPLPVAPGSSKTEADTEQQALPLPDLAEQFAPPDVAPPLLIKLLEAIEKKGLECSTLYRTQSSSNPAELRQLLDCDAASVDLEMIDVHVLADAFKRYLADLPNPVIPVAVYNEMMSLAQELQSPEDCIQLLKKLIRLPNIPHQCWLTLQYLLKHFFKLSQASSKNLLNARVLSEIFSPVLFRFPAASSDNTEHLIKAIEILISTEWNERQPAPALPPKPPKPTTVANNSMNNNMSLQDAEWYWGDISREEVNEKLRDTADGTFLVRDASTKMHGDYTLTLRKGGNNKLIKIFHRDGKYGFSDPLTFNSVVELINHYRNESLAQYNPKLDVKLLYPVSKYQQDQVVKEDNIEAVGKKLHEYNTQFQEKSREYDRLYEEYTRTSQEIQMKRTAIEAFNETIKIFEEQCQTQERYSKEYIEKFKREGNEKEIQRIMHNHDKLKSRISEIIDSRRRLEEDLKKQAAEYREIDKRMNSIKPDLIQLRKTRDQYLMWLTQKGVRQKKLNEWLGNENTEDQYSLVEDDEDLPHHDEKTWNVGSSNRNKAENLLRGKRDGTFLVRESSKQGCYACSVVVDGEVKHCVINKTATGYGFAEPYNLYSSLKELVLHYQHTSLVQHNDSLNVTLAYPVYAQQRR
Description: To analyze PI3K p110α and p110β signaling, murine embryo fibroblast (MEFs) were removed from FBS and starved for 2 hours followed by stimulation with 10 ng/mL of PDGF (Cell Signaling Technologies, Danvers, Mass.) or 10 μM of LPA (Echelon, Salt Lake City, Utah) for 10 minutes at 37° C., respectively. After washing once in cold phosphate-buffered saline (PBS), the cell pellet was resuspended in 1× cell lysis buffer (Cell Signaling Technologies) supplemented with mini protease inhibitor mix (Roche, Indianapolis, Ind.), phosphate inhibitor cocktail set I and II (Calbiochem, San Diego, Calif.) for 15 minutes on ice. Whole-cell lysates were obtained by centrifugation at 16,000 g for 10 minutes at 4° C., and the soluble protein was analyzed by Western blotting for Akt and pAkt levels. To analyze PI3K p110δ and p110γ signaling, basophil activation was measured in isolated PBMC or whole blood using the Flow2 CAST kit according to the manufacture's standardized methods (Buhlman Laboratories AG, Switzerland). Briefly, p110δ was activated with anti-FCεRI and p110γ was activated with fMLP (2 μM) in the absence or presence of compounds. To monitor the basophil cell population and cellular activation, anti-CD63-FITC and anti-CCR3-PE antibodies were added to each sample. Cells were fixed and analyzed on a FC500 MPL flow cytometer (Beckman Coulter, Brea, Calif.).

OVCAR-3 [5] = assay: pAkt pathway inhibition, OVCAR-3; type: cell-based; settings: Homo sapiens; OVCAR-3, Ovarian
[6] = test system: pAkt in B Cell Malignancies; assay: pAkt activity, B cell malignancies; type: cell-based; settings: N = 7
Excerpt: as §2

T Cell Malignancies = assay: Cellular viability, T cell malignancies; type: cell-based; settings: N = 7
Excerpt: as §2

OVCAR-3 [7] = assay: Viability (AlamarBlue), OVCAR-3; type: cell-based; settings: Homo sapiens; OVCAR-3, Ovarian
Description: as §1

CC(Nc1ncnc2[nH]cnc12)c1nc2cccc(Cl)c2c(=O)n1-c1ccccc1 (centres unmarked) [Compound A, 2-(1-(9H-purin-6-ylamino)ethyl)-5-chloro-3-phenylquinazolin-4(3H)-one]
GI50 (IGROV-1): 1.3 µM | In vitro metabolism [1]: Stable in human liver microsomes | EC50 (786-0 [2]): 44 nM | EC50 [3]: 0.31 µM | GI50 (786-0 [4]): 5 µM | EC50 (LN18): 10 nM | EC50 (PI3K p110α): 6 µM | EC50 (OVCAR-3 [5]): 647 nM | EC50 [6]: 0.184 µM | EC50 (T Cell Malignancies): 2.4 µM | GI50 (OVCAR-3 [7]): 0.85 µM
